Earlier results as cited in patent US20210087552A1, “Methods, Compositions, and Systems for Classification of Genetic Variants of Unknown Significance” (Laboratory Corporation of America Holdings, priority 2019, published 2021).

Key:
[1] = tested on: individual mutations in ABL1, ASXL1, BRAF, CDKN2A, CEBPA, CSF3R, DNMT3A, EZH2, FLT3, IDH1, IDH2, JAK2, KIT, KMT2A, KRAS, NF1, NPM1, NRAS, PDGFRA, PML PTPN11 …
[2] = tested on: individual mutations in ABL1, ASXL1, BRAF, CSF3R, DNMT3A, EZH2, FLT3, IDH2, JAK2, KIT, KRAS, NF1, NRAS, PDGFRA, PML PTPN11, and TET2

SMILES | mutation associated with resistance to chemotherapeutic agent [1] | mutation associated with resistance to agent [2]
Nc1ccn([C@@H]2O[C@H](CO)[C@@H](O)[C@@H]2O)c(=O)n1 [cytarabine] | resistance | –
CC(C)(C)c1nc(-c2cccc(NS(=O)(=O)c3c(F)cccc3F)c2F)c(-c2ccnc(N)n2)s1 [dabrafenib] | resistance | –
Cc1cn(-c2cc(NC(=O)c3ccc(C)c(Nc4nccc(-c5cccnc5)n4)c3)cc(C(F)(F)F)c2)cn1 [nilotinib] | – | resistance
